One may read the Kd as the equilibrium constant for the complex coming apart.

This assay deals with KanJ (kanamycin B dioxygenase) (Streptomyces kanamyceticus, UniProt Q6L732). The experiment in a line: isothermal titration calorimetry. Type of assay: binding. A general note: In ITC the heat of successive injections is recorded.
Sequence of KanJ (kanamycin B dioxygenase) (Q6L732 whole entry): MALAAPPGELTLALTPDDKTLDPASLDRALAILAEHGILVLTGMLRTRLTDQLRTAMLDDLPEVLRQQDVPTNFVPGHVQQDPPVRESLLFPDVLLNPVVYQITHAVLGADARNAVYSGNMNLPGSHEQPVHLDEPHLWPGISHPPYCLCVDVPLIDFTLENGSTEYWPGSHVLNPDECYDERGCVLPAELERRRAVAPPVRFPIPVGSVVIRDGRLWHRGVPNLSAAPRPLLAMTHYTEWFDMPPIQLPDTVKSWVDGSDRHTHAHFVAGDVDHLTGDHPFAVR

`NC[C@H]1O[C@H](O[C@H]2[C@H](O)[C@@H](O[C@H]3O[C@H](CO)[C@@H](O)[C@H](N)[C@H]3O)[C@H](N)C[C@@H]2N)[C@H](N)[C@@H](O)[C@@H]1O` [KAN, kanamycin B] registered a Kd of 1540 nM. That is a single-digit micromolar value.

(Values after PMC8034593 (The FEBS journal, 2020).)
